For 14 compounds, TGI results are on record in PubChem BioAssay (NCI).

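Interpolation was linear, between the two tested concentrations surrounding the appropriate level; five concentrations were tested over 48 hours in 96-well plates. TGI: total growth inhibition.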 Bounds are passed on as bounds.

Assay in all cases: DTP human tumour cell line panel, 48 h
The subject of assay [1] is SF-295 CNS.
The subject of assay [2] is SK-MEL-5 melanoma.
In assay [3] the test system is UACC-257 melanoma.
Assay [4] deals with HCT-15 colon.
The subject of assay [5] is SN12C renal.
The subject of assay [6] is OVCAR-3 ovarian.
The subject of assay [7] is OVCAR-8 ovarian.
Assay [8] concerns MDA-MB-435.
The test system of assay [9] is SNB-75 CNS.
The test system of assay [10] is MDA-MB-231 breast.

Regarding `CC1(O)C(=O)OC2CC([C@]3(O)CCC4[C@@H]5C[C@H]6O[C@]67[C@@H](O)C=CC(=O)[C@]7(C)C5CC[C@@]43C)C1(C)C2` (some centres not stated), the TGI (usually the concentration giving total growth inhibition) was greater than 100 µM in [1]; 45.3 µM in assay [2]; 26.6 µM in assay [3]; 51.9 µM in [4]; 63.4 µM in assay [5]; 35 µM in [6]. Besides, the TGI in assay [7] is greater than 100 µM; in assay [8], 33.2 µM; in assay [9] it was greater than 94.1 µM; in [10], 36 µM.

For the compound `COc1ccc(NS(=O)c2cccc(C)c2)cc1` (configuration not stated), the TGI was greater than 100 µM in [1]; 75 µM in [2]; greater than 100 µM in assay [3]; greater than 100 µM in [4]; greater than 100 µM in [5]; greater than 100 µM in assay [6]. Besides, the TGI in assay [7], in assay [8], in assay [9] and in assay [10] was greater than 100 µM throughout.

Turning to `CCCC(=O)OC1CC(n2cc(F)c(=O)[nH]c2=O)OC1CO` (configuration not stated), the TGI in assay [1] was greater than 10 µM; in [2] it was 1.84 µM; in [3] it was greater than 10 µM; in assay [4], greater than 10 µM; in [5], greater than 10 µM; in assay [6] it was greater than 10 µM. The TGI was greater than 10 µM in assay [7], greater than 10 µM in assay [8], greater than 8.14 µM in assay [9] and greater than 10 µM in assay [10].

As for `CCOC(=O)c1cn(C)nc1N/C(C)=C\C(=O)c1ccccc1`, the TGI in assay [1], in assay [2], in [3], in assay [4], in assay [5] and in assay [6] was greater than 100 µM in each case. The TGI in assay [7], in [8] and in [10] was greater than 100 µM throughout.

For `O=c1oc2ccccc2c(O)c1Cc1cccc(Cc2c(O)c3ccccc3oc2=O)c1`, the TGI in assay [1], in assay [2], in assay [3], in assay [4], in assay [5] and in assay [6] was greater than 100 µM in each case. Further, the TGI in [7], in assay [8], in assay [9] and in [10] was greater than 100 µM in each case.

Regarding `N#Cc1c(-c2ccc(Cl)cc2)cc(-c2nc3ccccc3[nH]2)nc1N`, the TGI in assay [1] came to 49.1 µM; in assay [2], 20.6 µM; in [3], 18.5 µM; in assay [4], 36.3 µM; in assay [5], 27.5 µM; in [6], 41.8 µM. The TGI was 49.5 µM in [7], 18.8 µM in [8], 31.2 µM in assay [9] and 26.8 µM in assay [10].

For the compound `C=C1C(=O)O[C@H]2C/C(C=O)=C\[C@H]3O[C@H]3/C(COC(=O)C(C)C)=C/CC12` (some centres not stated), the TGI in assay [1] came to 75.5 µM; in assay [2], 22.2 µM; in [3], 28.4 µM; in assay [4], 9.43 µM; in [5], 7.11 µM; in assay [6], 19.3 µM. Besides, the TGI in assay [7] is 13.3 µM; in assay [8], 18.9 µM; in [10] it was 17.3 µM.

As for `CN(C)C=Nc1nncc2n[nH]nc12`, the TGI in assay [1], in [2], in [3], in assay [4], in assay [5] and in assay [6] was greater than 100 µM each time. Further, the TGI in assay [7], in [8], in assay [9] and in [10] was greater than 100 µM in each case.

For `O=C(O)CCCc1ccc2c(c1)CC1(C2)Cc2ccc(CCCC(=O)O)cc2C1`, the TGI in assay [1], in [2], in assay [3], in assay [4], in [5] and in assay [6] was greater than 100 µM in each case. Moreover, the TGI in assay [7], in assay [8] and in assay [10] was greater than 100 µM throughout.

With `O=c1/c(=C/c2ccc(-c3ccc(Cl)cc3Cl)o2)sc2n1[C@@H](c1ccc3c(c1)OCO3)C=C(c1cc(F)c(Cl)cc1Cl)N=2`, the TGI in assay [1] was greater than 100 µM; in assay [2], greater than 100 µM; in [3], 71.1 µM; in [4] it was greater than 100 µM; in assay [5], greater than 100 µM; in [7] it was greater than 100 µM. For the same compound, the figures for the TGI in assay [8], in assay [9] and in [10] were greater than 100 µM, greater than 100 µM and 57.2 µM, respectively.

Turning to `CSC1NNC2(C(=O)N1)c1ccccc1-c1ccccc12` (configuration not stated), the TGI in assay [1], in assay [2], in assay [3], in assay [4], in assay [5] and in [7] was greater than 10 µM in each case. Besides, the TGI in assay [8], in assay [9] and in assay [10] was greater than 10 µM each time.

As for `CCCCCCCCCCCCCCCCNc1ccn(C2CC(OP(=O)(O)OCC3OC(n4cc(CC)c(=O)[nH]c4=O)CC3O)C(CO)O2)c(=O)n1` (configuration not stated), the TGI in assay [1] was 34.5 µM; in [3], 97.4 µM; in assay [4], 72.5 µM; in [5] it was greater than 100 µM; in assay [6] it was greater than 100 µM; in assay [7] it was 43.6 µM. The figures for the TGI in assay [8], in assay [9] and in assay [10] were greater than 100 µM, 81.1 µM and 68.3 µM, respectively.

With `S=C(Nc1ccc2c(c1)Cc1ccccc1-2)Nc1ccc2c(c1)Cc1ccccc1-2`, the TGI in [1], in [2], in [3], in assay [4], in assay [5] and in assay [6] was greater than 100 µM each time. Also, the TGI in assay [7], in assay [8] and in [10] was greater than 100 µM in each case.

As for `C/C(=C\CNc1nc(Cl)nc2nc[nH]c12)CO`, the TGI in assay [1], in [2], in [3], in [5], in [6] and in assay [7] was greater than 100 µM each time. In addition, the TGI in assay [8], in [9] and in assay [10] was greater than 100 µM throughout.
